The target of experiment [1] is T1, glutathione-S-transferase (GST) tagged LXRbeta LBD (ligand binding domain) (Homo sapiens, UniProt P55055).
T1 construct: purchased Invitrogen pv4658.pps
T1 sequence (P55055 222-460 limits assumed): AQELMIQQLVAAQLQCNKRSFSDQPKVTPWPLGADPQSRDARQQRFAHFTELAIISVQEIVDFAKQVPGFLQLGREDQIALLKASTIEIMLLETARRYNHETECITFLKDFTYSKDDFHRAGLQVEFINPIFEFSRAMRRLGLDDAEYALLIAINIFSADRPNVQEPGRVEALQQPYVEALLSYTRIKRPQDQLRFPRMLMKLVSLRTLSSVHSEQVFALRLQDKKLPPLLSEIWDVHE
The experiment can be described thus: LanthaScreen TR-FRET Liver X Receptor Coactivator Assay, co-activator recruitment to LXRbeta LBD. Format: biochemical. The procedure:
(§1) Potency (Inflection Point, IP) and efficacy (Emax) are evaluated via compound-induced co-activator recruitment to glutathione-S-transferase (GST) tagged LXRbeta and LXRalpha LBD (ligand binding domain) proteins in relation to reference dual agonist compound T0901317 (N-(2,2,2-Trifluoroethyl)-N-[4-[2,2,2-trifluoro-1-hydroxy-1-(trifluoromethyl)ethyl] phenyl] benzenesulfonamide) using the LanthaScreen™ TR-FRET Liver X Receptor Coactivator Assays according to manufacturer's instructions (Invitrogen catalog number pv4658.pps and pv4655). While running the LanthaScreen™ TR-FRET Liver X Receptor Coactivator Assay, LXR alpha-LBD or LXR beta-LBD was added to ligand test compounds followed by addition of a mixture of a fluorescein-labelled coactivator peptide and terbium-conjugated anti-GST antibody. After an incubation period at room temperature, TR-FRET (time-resolved fluorescence resonance energy transfer) was measured using a filter-based instrument capable of TR-FRET, e.g. PerkinElmer Envision.
A general note: TR-FRET usually uses a lanthanide donor and a delayed reading to cut background.

Experiment [2] deals with T2, glutathione-S-transferase (GST) tagged LXRalpha LBD (ligand binding domain) (Homo sapiens, UniProt Q13133).
T2 construct: purchased Invitrogen pv4655
T2 sequence (Q13133 209-447 limits assumed): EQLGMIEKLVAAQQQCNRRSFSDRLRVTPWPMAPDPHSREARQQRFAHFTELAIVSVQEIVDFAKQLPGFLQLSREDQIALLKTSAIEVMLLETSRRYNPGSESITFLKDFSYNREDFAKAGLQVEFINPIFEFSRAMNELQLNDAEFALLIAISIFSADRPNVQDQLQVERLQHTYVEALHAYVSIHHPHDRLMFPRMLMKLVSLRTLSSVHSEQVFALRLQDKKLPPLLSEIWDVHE
The experiment can be described thus: LanthaScreen TR-FRET Liver X Receptor Coactivator Assay, co-activator recruitment to LXRalpha LBD. Type of experiment: biochemical. The procedure:
as §1

[3] abbreviates: efficacy at max dose, in relation to reference dual agonist T0901317, read-out: LXR beta Activity @ max dose (%).
Setting [4] is: potency (Inflection Point, IP), co-activator recruitment to LXRbeta LBD, in relation to T0901317, read-out: LXR beta IP.
[5] abbreviates: efficacy at max dose, in relation to reference dual agonist T0901317, read-out: LXR alpha Activity @ max dose (%).
[6] abbreviates: potency (Inflection Point, IP), co-activator recruitment to LXRalpha LBD, in relation to T0901317.
[7] abbreviates: potency (Inflection Point, IP), co-activator recruitment to LXRalpha LBD, in relation to T0901317, read-out: LXR alpha IP.
[8] abbreviates: co-activator recruitment to GST-LXRbeta LBD, TR-FRET, read-out: LXR beta IP (Inflection Point, potency).
[9] abbreviates: efficacy in relation to reference dual agonist T0901317, read-out: LXR beta Activity @ max dose.
[10] abbreviates: co-activator recruitment to GST-LXRalpha LBD, TR-FRET, read-out: LXR alpha IP (Inflection Point, potency).
Setting [11] is: efficacy in relation to reference dual agonist T0901317, read-out: LXR alpha Activity @ max dose.

Like-named read-outs stand apart in the source and are kept apart here.

We go through 16 compounds from patent publication US10752587B2, “Homobispiperidinyl derivatives as liver X receptor beta agonists, compositions and their use” (Merck Sharp & Dohme Corp., priority 2015, dated 2020).

In the case of `CCOc1cccc([C@@](O)(C(=O)N2CCC(C)(CC3CCN(c4ccc(C(=O)N(C)C)c(C)c4)CC3)CC2)C(F)(F)F)c1` [Example 2-79, 4-[4-({1-[(2R)-2-(3-ethoxy-phenyl)-3,3,3-trifluoro-2-hydroxy-propanoyl]-4-methylpiperidin-4-yl}methyl)piperidin-1-yl]-N,N,2-trimethyl-benzamide], the Emax was found to be 30% in experiment [1] (setting [3]) and 0% in experiment [2] (setting [5]). Also, in experiment [1] (setting [4]), the EC50 was 40 nM. In addition, in experiment [2] (setting [6]), the “LXR alpha IP (nM)” value is listed as “NO IP”.

Regarding `CN(C)C(=O)c1ccc(N2CCC(CC3CCN(C(=O)[C@](O)(c4cccc(OC(F)(F)F)c4)C(F)(F)F)CC3)CC2)nc1Cl` [Example 7-75, 2-chloro-N,N-dimethyl-6-{4-[(1-{(2R)-3,3,3-trifluoro-2-hydroxy-2-[3-(trifluoromethoxy)phenyl]propanoyl}piperidin-4-yl)methyl]piperidin-1-yl}pyridine-3-carboxamide], the Emax in experiment [1] (setting [3]) was determined as 67%; in experiment [2] (setting [5]) it was 13%. Moreover, the EC50 in experiment [1] (setting [4]) was found to be 10 nM. Besides, in experiment [2] (setting [6]), the “LXR alpha IP (nM)” value was “NO IP”.

Take `CC(C)(C(=O)N1CCC(CC2CCN(c3cccc(S(C)(=O)=O)c3)CC2)CC1)c1ccccc1` [Example 2-73, 1-(2-methyl-2-phenylpropanoyl)-4-({1-[3-(methylsulfonyl)phenyl]piperidin-4-yl}methyl)piperidine]: the Emax in experiment [1] (setting [3]) was 77%; in experiment [2] (setting [5]), 35%. In addition, the EC50 turned out to be 223 nM in experiment [1] (setting [4]) and 5370 nM in experiment [2] (setting [7]).

With `CN(C)C(=O)c1ccc(N2CCC(CC3(C)CCN(C(=O)[C@](O)(c4cccc(Cl)c4)C(F)(F)F)CC3)CC2)cc1Cl` [Example 2-47, 2-chloro-4-[4-({1-[(2R)-2-(3-chloro-phenyl)-3,3,3-trifluoro-2-hydroxy-propanoyl]-4-methyl-piperidin-4-yl}methyl)piperidin-1-yl]-N,N-dimethyl-benzamide], the Emax was determined as 49% in experiment [1] (setting [3]) and 7% in experiment [2] (setting [5]). Also, in experiment [1] (setting [4]), the EC50 came to 4 nM. The “LXR alpha IP (nM)” value in experiment [2] (setting [6]) is “NO IP”.

For the compound `COc1cccc(S(=O)(=O)N2CC(CC3CCN(c4ccc(C(=O)N(C)C)c(Cl)n4)CC3)C2)c1` [Example 14-2, 2-chloro-6-[4-({1-[(3-methoxyphenyl)-sulfonyl]azetidin-3-yl}methyl)piperidin-1-yl}-N,N-dimethyl-pyridine-3-carboxamide], the EC50 in experiment [1] (setting [8]) amounted to 50 nM; in experiment [2] (setting [10]) it was 10300 nM. Moreover, the Emax amounted to 93% in experiment [1] (setting [9]) and 45% in experiment [2] (setting [11]).

Regarding `CN(C)C(=O)c1ccc(N2CCC(CC3CCN(C(=O)C(O)(c4cccnc4)C(F)(F)F)CC3)CC2)nc1Cl` (stereo not shown) [Example 7-66, 2-chloro-N,N-dimethyl-6-(4-{[1-(3,3,3-trifuoro-2-hydroxy-2-pyridin-3-ylpropanoyl)piperidin-4-yl]methyl}piperidin-1-yl)pyridine-3-carboxamide], the results for the Emax in experiment [1] (setting [3]) and in experiment [2] (setting [5]) were 108% and 48%, respectively. Also, the EC50 in experiment [1] (setting [4]) came out at 83 nM; in experiment [2] (setting [7]), 1590 nM.

For the compound `CNC(=O)c1ccc(N2CCC(CC3CCN(C(=O)[C@](O)(c4cccc(Br)c4)C(F)(F)F)CC3)CC2)nc1Cl` [Example 7-146, 6-[4-({1-[(2R)-2-(3-bromophenyl)-3,3,3-trifluoro-2-hydroxypropanoyl]piperidin-4-yl}methyl)piperidin-1-yl]-2-chloro-N-methylpyridine-3-carboxamide], the Emax came out at 113% in experiment [1] (setting [3]) and 51% in experiment [2] (setting [5]). Further, the EC50 in experiment [1] (setting [4]) came to 9 nM; in experiment [2] (setting [7]), 127 nM.

As to `CN(C)C(=O)c1ccc(N2CCC(CC3CCN(S(=O)(=O)c4cccc(F)c4)CC3)CC2)cc1Cl` [Example 13-7, 2-chloro-4-[4-({1-[(3-fluorophenyl)sulfonyl]-piperidin-4-yl}methyl)-piperidin-1-yl]-N,N-dimethylbenzamide], the EC50 in experiment [1] (setting [8]) was 60 nM; in experiment [2] (setting [10]) it was 1190 nM. The Emax in experiment [1] (setting [9]) was determined as 67%; in experiment [2] (setting [11]), 25%.

For the compound `CC(C)C(O)(C(=O)N1CCC(CC2CCN(c3ccc(C(=O)N(C)C)c(Cl)n3)CC2)CC1)C(F)(F)F` (stereo not shown) [Example 7-59, 2-chloro-6-[4-({1-[2-hydroxy-3-methyl-2-(trifluoromethyl)butanoyl]piperidin-4-yl}methyl)piperidin-1-yl]-N,N-dimethylpyridine-3-carboxamide], the figures for the Emax in experiment [1] (setting [3]) and in experiment [2] (setting [5]) were 107% and 39%, respectively. Besides, the EC50 in experiment [1] (setting [4]) was 293 nM; in experiment [2] (setting [7]) it was 2680 nM.

As for `CNC(=O)c1ccc(N2CCC(CC3CCN(C(=O)[C@@](O)(c4ccccc4)C(F)(F)F)CC3)CC2)nc1Cl` [Example 7-140, 2-chloro-N-methyl-6-[4-({1-[(2S)-3,3,3-trifluoro-2-hydroxy-2-phenylpropanoyl]piperidin-4-yl}methyl)piperidin-1-yl]pyridine-3-carboxamide], the Emax in experiment [1] (setting [3]) was determined as 122%; in experiment [2] (setting [5]), 44%. Moreover, the figures for the EC50 in experiment [1] (setting [4]) and in experiment [2] (setting [7]) were 158 nM and 1130 nM, respectively.

As to `CN(C)C(=O)c1ccc(N2CCC(CC3CCN(C(=O)C(N)(c4ccccc4)C(F)(F)C(F)(F)F)CC3)CC2)cc1Cl` (stereo not shown) [Example 2-123, 4-(4-{[1-(2-amino-3,3,4,4,4-pentafluoro-2-phenylbutanoyl)piperidin-4-yl]methyl}piperidin-1-yl)-2-chloro-N,N-dimethyl-benzamide], the Emax was determined as 106% in experiment [1] (setting [3]) and 21% in experiment [2] (setting [5]). For the same compound, the EC50 in experiment [1] (setting [4]) amounted to 335 nM; in experiment [2] (setting [7]) it was 1470 nM.

In the case of `Cc1cc(N2CCC(CC3CCN(C(=O)[C@](O)(c4cc(F)cc(Cl)c4)C(F)(F)F)CC3)CC2)ccc1C(=O)N(C)C` [Example 2-153, 4-[4-({1-[(2R)-2-(3-chloro-5-fluorophenyl)-3,3,3-trifluoro-2-hydroxy-propanoyl]piperidin-4-yl}methyl)piperidin-1-yl]-N,N,2-trimethyl-benzamide], the Emax in experiment [1] (setting [3]) stood at 95%; in experiment [2] (setting [5]), 41%. In addition, the EC50 in experiment [1] (setting [4]) was 8 nM; in experiment [2] (setting [7]) it was 123 nM.

For `CN(C)C(=O)c1ccc(N2CCC(CC3CCN(C(=O)[C@](O)(c4cc(F)cc(Cl)c4)C(F)(F)F)CC3)CC2)cc1Cl` [Example 2-102, 2-chloro-4-[4-({1-[(2R)-2-(3-chloro-5-fluorophenyl)-3,3,3-trifluoro-2-hydroxy-propanoyl]piperidin-4-yl}methyl)piperidin-1-yl]-N,N-dimethyl-benzamide], the values for the Emax in experiment [1] (setting [3]) and in experiment [2] (setting [5]) were 81% and 36%, respectively. Besides, the EC50 in experiment [1] (setting [4]) is 2 nM; in experiment [2] (setting [7]), 29 nM.

`CCc1cccc([C@@](O)(C(=O)N2CCC(CC3CCN(c4ccc(C(=O)N(C)C)c(C)c4)CC3)CC2)C(F)(F)F)c1` [Example 2-156, 4-[4-({1-[(2R)-2-(3-ethyl-phenyl)-3,3,3-trifluoro-2-hydroxy-propanoyl]piperidin-4-yl}methyl)piperidin-1-yl]-N,N,2-trimethyl-benzamide]: the Emax is 42% in experiment [1] (setting [3]) and 12% in experiment [2] (setting [5]). Further, the EC50 in experiment [1] (setting [4]) was 21 nM. The “LXR alpha IP (nM)” value in experiment [2] (setting [6]) is “NO IP”.

Turning to `CC(C)Oc1cccc([C@@](O)(C(=O)N2CCC(CC3CCN(c4ccc(C(N)=O)c(Cl)c4)CC3)CC2)C(F)(F)F)c1` [Example 12-7, 2-chloro-4-{4-[(1-{(2R)-3,3,3-trifluoro-2-hydroxy-2-[3-(1-methylethoxy)phenyl)-propanoyl}piperidin-4-yl)methyl]piperidin-1-yl}benzamide], the EC50 in experiment [1] (setting [8]) was 6 nM. The Emax is 33% in experiment [1] (setting [9]) and 12% in experiment [2] (setting [11]). In addition, the “LXR alpha IP (Inflection Point, potency)” value in experiment [2] (co-activator recruitment to GST-LXRalpha LBD, TR-FRET) is listed as “NO IP”.

For the compound `CN(C)C(=O)c1ccc(N2CCC(CC3CCN(C(=O)c4c(F)cccc4F)CC3)CC2)cc1Cl` [Example 2-8, 2-chloro-4-[4-({1-[(2,6-difluorophenyl)carbonyl]piperidin-4-yl}methyl)piperidin-1-yl]-N,N-dimethyl-benzamide], the Emax in experiment [1] (setting [3]) stood at 40%; in experiment [2] (setting [5]), 0%. In addition, the EC50 in experiment [1] (setting [4]) stood at 352 nM. In experiment [2] (setting [6]), the “LXR alpha IP (nM)” value is given as “NO IP”.
